Experimental data taken from patent US20120115845A1, “THERAPEUTIC AGENTS” (priority 2007, published 2012).

What was measured:
[1] = target: T1, human GHS receptor (Homo sapiens, UniProt Q92847); test: h bind IC50 (binding assay, Table 1); settings: human receptor; Table 1
[2] = target: T1, human GHS receptor; test: Ghrelin IP1 agonist assay (IP1 HTRF); type: cell-based; design: expressed in transfected cells; host or cells: HEK293s; settings: for Emax: 2 h, agonist effect as % maximal effect of GHRP-6 (5 μM), read-out: h IP1 ag %; for EC50: HEK293s cells stably expressing human GHS receptor, 2 hours at 37° C., read-out: h IP1 ag EC50
Summary of the method: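 Cells: HEK293s stably expressing human GHS receptor, in stimulation buffer containing 0.02% fatty acid free BSA.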

T1 sequence (Q92847 whole entry): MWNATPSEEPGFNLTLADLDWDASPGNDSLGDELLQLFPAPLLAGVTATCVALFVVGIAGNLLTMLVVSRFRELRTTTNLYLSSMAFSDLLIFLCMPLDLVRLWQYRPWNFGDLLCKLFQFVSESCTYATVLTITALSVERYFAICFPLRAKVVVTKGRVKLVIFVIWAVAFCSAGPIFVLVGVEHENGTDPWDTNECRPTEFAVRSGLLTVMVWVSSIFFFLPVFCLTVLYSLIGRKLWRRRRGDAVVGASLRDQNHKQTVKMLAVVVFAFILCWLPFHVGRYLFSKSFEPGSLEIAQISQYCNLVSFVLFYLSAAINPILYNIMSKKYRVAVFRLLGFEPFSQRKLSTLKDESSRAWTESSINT

Row | SMILES | IC50 [1] | Emax [2] | EC50 [2]
1 | CS(=O)(=O)c1ccc2nc(NC(=O)NC(=O)c3ccc(N4CCOCC4)cc3Cl)sc2c1 [Example 115, 2-Chloro-N-[(6-methylsulfonylbenzothiazol-2-yl)carbamoyl]-4-morpholin-4-yl-benzamide] | 63.4 nM | 9.95% | 2030 nM
2 | O=C(NC(=O)c1ccccc1Cl)Nc1nc2ccc(S(=O)(=O)[C@@H]3CCNC3)cc2s1 [Example 172, 2-Chloro-N-[[6-[(3R)-pyrrolidin-3-yl]sulfonylbenzothiazol-2-yl]carbamoyl]benzamide] | 28.3 nM | 44.4% | 7.31 nM
3 | CC1CCC(C)N1CCS(=O)(=O)c1ccc2nc(NC(=O)NC(=O)c3ccccc3Cl)sc2c1 (stereo not drawn) [Example 18, 2-Chloro-N-[[6-[2-(2,5-dimethylpyrrolidin-1-yl)ethylsulfonyl]benzothiazol-2-yl]carbamoyl]benzamide] | 252 nM | 47% | 53.6 nM
4 | O=C(NC(=O)c1ccccc1Cl)Nc1nc2ccc(S(=O)(=O)C[C@H]3CCCN3)cc2s1 [Example 165, 2-Chloro-N-[[6-[[(2R)-pyrrolidin-2-yl]methylsulfonyl]benzothiazol-2-yl]carbamoyl]benzamide] | 127 nM | 49.4% | 67.1 nM
5 | CC(=O)NC1CC(S(=O)(=O)c2ccc3nc(NC(=O)NC(=O)c4ccccc4Cl)sc3c2)C1 (stereo not drawn) [Example 223, N-[[6-(3-Acetamidocyclobutyl)sulfonylbenzothiazol-2-yl]carbamoyl]-2-chlorobenzamide] | 95.8 nM | 24.8% | 62.1 nM
6 | CS(=O)(=O)c1ccc2nc(NC(=O)NC(=O)c3cc(OC4CCNC4)ccc3Cl)sc2c1 (stereo not drawn) [Example 249, 2-chloro-N-(6-(methylsulfonyl)benzo[d]thiazol-2-ylcarbamoyl) 5-(pyrrolidin-3-yloxy)benzamide] | 8080 nM | 3.13% | 4900 nM
7 | CS(=O)(=O)c1ccc2nc(NC(=O)NC(=O)c3cc(-c4cncs4)ccc3Cl)sc2c1 [Example 68, 2-chloro-N-(6-(methylsulfonyl)benzothiazol-2-ylcarbamoyl)-5-(thiazol-5-yl)benzamide] | 44.1 nM | 0% | > 25000 nM
8 | NS(=O)(=O)c1ccc2nc(NC(=O)NC(=O)c3ccccc3Cl)sc2c1 [Example 229, 2-chloro-N-[(6-sulfamoyl-1,3-benzothiazol-2-yl)carbamoyl] benzamide] | 1970 nM | 18.2% | 117 nM
9 | CS(=O)(=O)c1ccc2nc(NC(=O)NC(=O)c3ccccc3F)sc2c1 [Example 108, 2-Fluoro-N-[(6-methylsulfonylbenzothiazol-2-yl)carbamoyl]benzamide] | 1640 nM | 8.69% | 24300 nM
10 | O=C(NC(=O)c1ccccc1Cl)Nc1nc2ccc(S(=O)(=O)CCc3ccccn3)cc2s1 [Example 190, 2-Chloro-N-[[6-(2-pyridin-2-ylethylsulfonyl)benzothiazol-2-yl]carbamoyl]benzamide] | 51.9 nM | 21.3% | 82.2 nM
11 | O=C(NC(=O)c1ccccc1Cl)Nc1nc2ccc(S(=O)(=O)CCN3CCC(F)(F)C3)cc2s1 [Example 21, 2-Chloro-N-[[6-[2-(3,3-difluoropyrrolidin-1-yl)ethylsulfonyl]benzothiazol-2-yl]carbamoyl]benzamide] | 1680 nM | 16.9% | 221 nM
12 | CC(C)(C)OC(=O)NC1CC(S(=O)(=O)c2ccc3nc(NC(=O)NC(=O)c4ccccc4Cl)sc3c2)C1 (stereo not drawn) [Example 213, tert-Butyl N-[3-[2-[(2-chlorobenzoyl)carbamoylamino]benzothiazol-6-yl]sulfonylcyclobutyl]carbamate] | 238 nM | 12.9% | 12.5 nM
13 | CS(=O)(=O)c1ccc2nc(NC(=O)NC(=O)c3c(Cl)cccc3Cl)sc2c1 [Example 101, 2,6-Dichloro-N-[(6-methylsulfonylbenzothiazol-2-yl)carbamoyl]benzamide] | 284 nM | 7.89% | 206 nM
14 | CS(=O)(=O)c1ccc2nc(NC(=O)NC(=O)c3cc(F)c(F)cc3Cl)sc2c1 [Example 177, 2-Chloro-4,5-difluoro-N-[(6-methylsulfonylbenzothiazol-2-yl)carbamoyl]benzamide] | 248 nM | 22.8% | 66.4 nM
15 | CNS(=O)(=O)c1ccc2nc(NC(=O)NC(=O)c3ccccc3Cl)sc2c1 [Example 230, 2-chloro-N-[[6-(methylsulfamoyl)-1,3-benzothiazol-2-yl]carbamoyl] benzamide] | 19.3 nM | 12.6% | 46.5 nM
16 | CS(=O)(=O)c1ccc2nc(NC(=O)NC(=O)c3ccccc3COc3ccccc3)sc2c1 [Example 131, N-[(6-Methylsulfonylbenzothiazol-2-yl)carbamoyl]-2-(phenoxymethyl)benzamide] | 229 nM | 17.5% | 191 nM
17 | CN(C)c1cccnc1-c1ccc(Cl)c(C(=O)NC(=O)Nc2nc3ccc(S(C)(=O)=O)cc3s2)c1 [Example 247] | 452 nM | 0% | ≥ 20000 nM
18 | COCC1CCCN1CCS(=O)(=O)c1ccc2nc(NC(=O)NC(=O)c3ccccc3Cl)sc2c1 (stereo not drawn) [Example 36, 2-Chloro-N-[[6-[2-[2-(methoxymethyl)pyrrolidin-1-yl]ethylsulfonyl]benzothiazol-2-yl]carbamoyl]benzamide] | 305 nM | 34.3% | 9.55 nM

Molecules with a lower IC50 [1], results first:

Row | IC50 [1] | Emax [2] | EC50 [2] | SMILES
19 | 18.7 nM | 1% | 27.7 nM | CC(C)(C)OC(=O)N1CC(Oc2ccc(Cl)c(C(=O)NC(=O)Nc3nc4ccc(S(C)(=O)=O)cc4s3)c2)C1 [Example 252, tert-buty 3-(4-chloro-3-(6-(methylsulfonyl)benzo[d]thiazol-2-ylcarbamoyl-carbamoyl)phenoxy)azetidine-1-carboxylate]
20 | 18.6 nM | 58.2% | 43 nM | COCCNC1CC(S(=O)(=O)c2ccc3nc(NC(=O)NC(=O)c4ccccc4Cl)sc3c2)C1 (stereo not drawn) [Example 222, 2-Chloro-N-[[6-[3-(2-methoxyethylamino)cyclobutyl]sulfonylbenzothiazol-2-yl]carbamoyl]benzamide]
21 | 18.3 nM | 61.2% | 5.91 nM | CS(=O)(=O)c1ccc2nc(NC(=O)NC(=O)c3ccc(Cl)cc3Cl)sc2c1 [Example 179, 2,4-Dichloro-N-[(6-methylsulfonylbenzothiazol-2-yl)carbamoyl]benzamide]
22 | 12.5 nM | 47% | 10.9 nM | CCN(CC)CCCS(=O)(=O)c1ccc2nc(NC(=O)NC(=O)c3ccccc3Cl)sc2c1 [Example 153, 2-Chloro-N-[[6-(3-diethylaminopropylsulfonyl)benzothiazol-2-yl]carbamoyl]benzamide]
23 | 12.4 nM | 42.2% | 15.4 nM | CC1CN(CCCS(=O)(=O)c2ccc3nc(NC(=O)NC(=O)c4ccccc4Cl)sc3c2)CCN1 (stereo not drawn) [Example 209, 2-Chloro-N-[[6-[3-(3-methylpiperazin-1-yl)propylsulfonyl]benzothiazol-2-yl]carbamoyl]benzamide]
24 | 12 nM | 0.5% | 8240 nM | CS(=O)(=O)c1ccc2nc(NC(=O)NC(=O)c3cc(-n4cccn4)ccc3Cl)sc2c1 [Example 46, 2-Chloro-5-(pyrazol-1-yl)-N-(6-(methylsulfonyl)benzothiazol-2-ylcarbamoyl)benzamide]
25 | 10.5 nM | 2.45% | 3340 nM | CN1CCC(S(=O)(=O)c2ccc3nc(NC(=O)NC(=O)c4cc(N5CCOCC5)c(Cl)cc4Cl)sc3c2)CC1 [Example 258, 2,4-dichloro-N-(6-(1-methylpiperidin-4-ylsulfonyl)benzo[d]thiazol-2-ylcarbamoyl)-5-morpholino-benzamide]
26 | 8.7 nM | 9.19% | 1.5 nM | CCN(CC)CCCS(=O)(=O)c1ccc2nc(NC(=O)NC(=O)c3cc(-n4cccn4)ccc3Cl)sc2c1 [Example 98, 2-Chloro-N-(6-(3-(diethylamino)propylsulfonyl)benzothiazol-2-ylcarbamoyl)-5-(1H-pyrazol-1-yl)benzamide]
27 | 6.7 nM | 42.1% | 13.8 nM | O=C(NC(=O)c1ccccc1Cl)Nc1nc2ccc(S(=O)(=O)C3CNC3)cc2s1 [Example 183, N-[[6-(Azetidin-3-ylsulfonyl)benzothiazol-2-yl]carbamoyl]-2-chloro-benzamide]
28 | 5.03 nM | 0.653% | ≥ 20000 nM | CN1CCC(S(=O)(=O)c2ccc3nc(NC(=O)NC(=O)c4cc(-n5cccn5)c(Cl)cc4Cl)sc3c2)CC1 [Example 259, 2,4-dichloro-N-(6-(1-methylpiperidin-4-ylsulfonyl)benzo [d]thiazol-2-ylcarbamoyl)-5-(1H-pyrazol-1-yl)benzamide]
29 | 0.7 nM | 0.64% | ≥ 25000 nM | CN1CCN(CCCS(=O)(=O)c2ccc3nc(NC(=O)NC(=O)c4cc(-c5ccccn5)ccc4Cl)sc3c2)CC1 [Example 86, 2-Chloro-N-(6-(3-(4-methylpiperazin-1-yl)propylsulfonyl)benzothiazol-2-ylcarbamoyl)-5-(pyridin-2-yl)benzamide]
30 | 0.5 nM | 0.5% | 4820 nM | Cc1ccn(-c2ccc(Cl)c(C(=O)NC(=O)Nc3nc4ccc(S(=O)(=O)CCCN5CCN(C)CC5)cc4s3)c2)n1 [Example 91, 2-Chloro-5-(3-methyl-1H-pyrazol-1-yl)-N-(6-(3-(4-methylpiperazin-1-yl)propylsulfonyl)benzothiazol-2-ylcarbamoyl)benzamide]
31 | 0.05 nM | 22.3% | 2.19 nM | CCc1ccc(Cl)c(C(=O)NC(=O)Nc2nc3ccc(S(=O)(=O)CCCN4CCN(C)CC4)cc3s2)c1 [Example 226, 2-chloro-5-ethyl-N-(6-(3-(4-methylpiperazin-1-yl)propylsulfonyl)-benzo[d]thiazol-2-ylcarbamoyl)benzamide]
